According to PubChem BioAssay AID248 (DTP/NCI, 2004):
Inconclusive results and toxic doses are left out. No stated cut-off is given here; in the data, active means T/C of 150% or more; inactive means T/C below 125%.

System: L1210 leukemia ip in BDF1 mice, survival T/C
Assay: NCI In Vivo Anticancer Drug Screen. Data for tumor model L1210 Leukemia (intraperitoneal) in B6D2F1 (BDF1) mice
Details: endpoint: mean survival time, higher = longer survival
In short: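 Value reflects the ratio of survival in compound-treated mice to survival in vehicle-treated controls, with both groups carrying the same transplanted tumor.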

[1] = dose: 50.0 mg/kg/injection, schedule: Q01DX001 (ip), vehicle: carboxymethylcellulose (CMC)
[2] = dose: 100.0 mg/kg/injection, schedule: Q01DX001 (ip), vehicle: carboxymethylcellulose (CMC)
[3] = dose: 200.0 mg/kg/injection, schedule: Q01DX001 (ip), vehicle: carboxymethylcellulose (CMC)
[4] = dose: 400.0 mg/kg/injection, schedule: Q01DX001 (ip), vehicle: carboxymethylcellulose (CMC)
[5] = dose: 100.0 mg/kg/injection, schedule: Q04DX002 (ip), vehicle: Klucel (hydroxypropylcellulose) (HPC)
[6] = dose: 200.0 mg/kg/injection, schedule: Q04DX002 (ip), vehicle: Klucel (hydroxypropylcellulose) (HPC)
[7] = dose: 100.0 mg/kg/injection, schedule: Q04DX003 (ip), vehicle: saline with Tween-80
[8] = dose: 400.0 mg/kg/injection, schedule: Q04DX003 (ip), vehicle: saline with Tween-80
[9] = dose: 100.0 mg/kg/injection, schedule: Q01DX001 (ip), vehicle: Klucel (hydroxypropylcellulose) (HPC)
[10] = dose: 200.0 mg/kg/injection, schedule: Q01DX001 (ip), vehicle: Klucel (hydroxypropylcellulose) (HPC)
[11] = dose: 100.0 mg/kg/injection, schedule: Q01DX001 (ip), vehicle: saline
[12] = dose: 100.0 mg/kg/injection, schedule: Q04DX003 (ip), vehicle: Klucel (hydroxypropylcellulose) (HPC)
[13] = dose: 200.0 mg/kg/injection, schedule: Q04DX003 (ip), vehicle: Klucel (hydroxypropylcellulose) (HPC)
[14] = dose: 400.0 mg/kg/injection, schedule: Q04DX003 (ip), vehicle: Klucel (hydroxypropylcellulose) (HPC)
[15] = dose: 100.0 mg/kg/injection, schedule: Q04DX003 (ip), vehicle: saline
[16] = dose: 100.0 mg/kg/injection, schedule: Q01DX009 (ip), vehicle: saline
[17] = dose: 200.0 mg/kg/injection, schedule: Q01DX009 (ip), vehicle: saline
[18] = dose: 200.0 mg/kg/injection, schedule: Q04DX003 (ip), vehicle: saline
[19] = dose: 400.0 mg/kg/injection, schedule: Q01DX009 (ip), vehicle: saline
[20] = dose: 400.0 mg/kg/injection, schedule: Q04DX003 (ip), vehicle: saline
[21] = dose: 100.0 mg/kg/injection, schedule: Q01DX009 (ip), vehicle: Klucel (hydroxypropylcellulose) (HPC)
[22] = dose: 200.0 mg/kg/injection, schedule: Q01DX009 (ip), vehicle: Klucel (hydroxypropylcellulose) (HPC)

Measured: T/C

Clc1nccc2n[nH]nc12
inactive: dose: 100.0 mg/kg/injection, schedule: Q01DX001 (ip), vehicle: other 94 % of control | dose: 100.0 mg/kg/injection, schedule: Q04DX003 (ip), vehicle: other 103 % of control | dose: 200.0 mg/kg/injection, schedule: Q01DX001 (ip), vehicle: other 91 % of control | dose: 200.0 mg/kg/injection, schedule: Q04DX003 (ip), vehicle: other 100 % of control | dose: 400.0 mg/kg/injection, schedule: Q01DX001 (ip), vehicle: other 103 % of control | dose: 400.0 mg/kg/injection, schedule: Q04DX003 (ip), vehicle: other 107 % of control

CCC1=CCC=CC1
inactive: [1] 101 % of control | [2] 104 % of control | [3] 104 % of control | [4] 109 % of control

Nc1cc2c3c(cccc3c1Br)C(=O)NC2=O
inactive: [5] 121 % of control | [6] 96 % of control | dose: 400.0 mg/kg/injection, schedule: Q04DX002 (ip), vehicle: Klucel (hydroxypropylcellulose) (HPC) 107 % of control

NNC(=O)OCCO
inactive: dose: 25.0 mg/kg/injection, schedule: Q01DX009 (ip), vehicle: saline 103 % of control | dose: 50.0 mg/kg/injection, schedule: Q01DX009 (ip), vehicle: saline 104 % of control

c1ccc(COc2ccc(Cc3nccc4ccccc34)cc2OCc2ccccc2)cc1
inactive: [7] 88 % of control | [8] 88 % of control

O=C(Nc1cccc(CSc2nc3nc[nH]c(=O)c3[nH]2)c1)Oc1ccccc1
inactive: dose: 50.0 mg/kg/injection, schedule: Q01DX001 (ip), vehicle: Klucel (hydroxypropylcellulose) (HPC) 96 % of control | [9] 91 % of control | [10] 98 % of control

S=P(Oc1cc(Cl)c(Cl)cc1Cl)(N1CCN(c2ccccc2)CC1)N1CCN(c2ccccc2)CC1
inactive: [11] 90 % of control | dose: 200.0 mg/kg/injection, schedule: Q01DX001 (ip), vehicle: saline 90 % of control | dose: 400.0 mg/kg/injection, schedule: Q01DX001 (ip), vehicle: saline 88 % of control

O=C(O)c1cc(CBr)ccc1CBr
inactive: dose: 6.25 mg/kg/injection, schedule: Q01DX009 (ip), vehicle: saline with Tween-80 100 % of control | dose: 6.25 mg/kg/injection, schedule: Q04DX003 (ip), vehicle: saline with Tween-80 93 % of control | dose: 12.5 mg/kg/injection, schedule: Q01DX009 (ip), vehicle: saline with Tween-80 103 % of control | dose: 12.5 mg/kg/injection, schedule: Q04DX003 (ip), vehicle: saline with Tween-80 94 % of control | dose: 25.0 mg/kg/injection, schedule: Q01DX009 (ip), vehicle: saline with Tween-80 95 % of control | dose: 25.0 mg/kg/injection, schedule: Q04DX003 (ip), vehicle: saline with Tween-80 102 % of control

CC(O)CNC1CCCCC1 (stereo unspecified)
inactive: dose: 75.0 mg/kg/injection, schedule: Q01DX001 (ip), vehicle: saline 92 % of control | dose: 150.0 mg/kg/injection, schedule: Q01DX001 (ip), vehicle: saline 100 % of control

O=[N+]([O-])c1ccccc1C=Nc1ccccc1O
inactive: [12] 103 % of control | [13] 97 % of control | [14] 94 % of control

O=C(O)C(O)C(Br)C(=O)O (stereo unspecified)
inactive: dose: 50.0 mg/kg/injection, schedule: Q04DX003 (ip), vehicle: saline 95 % of control | [11] 95 % of control | [15] 104 % of control

O=C1C(=O)N2CCCCc3cccc1c32
inactive: [1] 96 % of control | [2] 108 % of control | [3] 100 % of control | [4] 101 % of control

CCCCCCCCCOc1ccc(C=O)cc1OC
inactive: [9] 93 % of control | [10] 102 % of control | dose: 400.0 mg/kg/injection, schedule: Q01DX001 (ip), vehicle: Klucel (hydroxypropylcellulose) (HPC) 100 % of control

CN(C)C(=O)NCC[N+](C)(C)C
inactive: [16] 100 % of control | [15] 99 % of control | [17] 106 % of control | [18] 92 % of control | [19] 97 % of control | [20] 94 % of control

CCOC(=O)C(NC(=O)CCl)C(=O)OCC
inactive: dose: 50.0 mg/kg/injection, schedule: Q01DX009 (ip), vehicle: Klucel (hydroxypropylcellulose) (HPC) 91 % of control | [21] 94 % of control | [12] 100 % of control | [22] 91 % of control | [13] 91 % of control

O=C(NO)c1ccc(F)cc1
inactive: [2] 103 % of control | [3] 97 % of control | [4] 92 % of control

Cc1ccc2ccccc2c1
inactive: [5] 91 % of control | [6] 95 % of control

C/C(=C\C(=O)O)CBr
inactive: dose: 50.0 mg/kg/injection, schedule: Q01DX009 (ip), vehicle: saline with Tween-80 93 % of control | dose: 100.0 mg/kg/injection, schedule: Q01DX009 (ip), vehicle: saline with Tween-80 86 % of control

CC1NC1C (stereo unspecified)
inactive: dose: 45.0 mg/kg/injection, schedule: Q04DX003 (ip), vehicle: saline 102 % of control | dose: 90.0 mg/kg/injection, schedule: Q04DX003 (ip), vehicle: saline 98 % of control | [16] 103 % of control | [15] 108 % of control | dose: 180.0 mg/kg/injection, schedule: Q04DX003 (ip), vehicle: saline 107 % of control | [17] 108 % of control | [18] 114 % of control | [19] 103 % of control | [20] 119 % of control

Oc1ccc(O)c(CCCc2cc(O)ccc2O)c1
inactive: [7] 98 % of control | dose: 200.0 mg/kg/injection, schedule: Q04DX003 (ip), vehicle: saline with Tween-80 98 % of control | [8] 90 % of control

NC1=CC(=O)C(=O)c2cccnc21
inactive: dose: 75.0 mg/kg/injection, schedule: Q01DX001 (ip), vehicle: other 92 % of control

CC(C)CCCC(C)C1CCC2C3CC=C4CC(OCCO)CCC4(C)C3CCC12C (stereo unspecified)
inactive: dose: 100.0 mg/kg/injection, schedule: Q01DX009 (ip), vehicle: other 87 % of control | dose: 200.0 mg/kg/injection, schedule: Q01DX009 (ip), vehicle: other 105 % of control

Cc1cc(C)c(NC(=O)Nc2ccccc2C)c(C)c1
inactive: [21] 97 % of control | [12] 108 % of control | [22] 103 % of control | [13] 98 % of control | dose: 400.0 mg/kg/injection, schedule: Q01DX009 (ip), vehicle: Klucel (hydroxypropylcellulose) (HPC) 99 % of control | [14] 94 % of control

O=C(CCCN1CCC2(CC1)C(=O)NCN2c1ccccc1)c1ccccc1
inactive: dose: 10.0 mg/kg/injection, schedule: Q04DX003 (ip), vehicle: Klucel (hydroxypropylcellulose) (HPC) 96 % of control | dose: 20.0 mg/kg/injection, schedule: Q04DX003 (ip), vehicle: Klucel (hydroxypropylcellulose) (HPC) 98 % of control | dose: 40.0 mg/kg/injection, schedule: Q04DX003 (ip), vehicle: Klucel (hydroxypropylcellulose) (HPC) 101 % of control
